Source: PubChem BioAssay AID2060486 (Molecular Pharmacology Branch, DTP, NCI, 2025)
Values joined by “and” are separate entries in the source; they are usually repeats but may differ in a detail not shown here. Identical values can stand only once.

Test system: IGROV1 complex spheroids (HUVEC, MSC), viability % test/control
Experiment: Anticancer human tumor IGROV1 cell line growth inhibition [GQUAD];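 also: spheroids exposed to compounds for 7 days before readout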
Details: for viability, T/C: stronger effect = lower value
Source text: DNA G-quadruplex Stabilizer Agents in Combinations in Complex Spheroids
A high-throughput screen of multi-cell type tumor spheroids was designed to identify active combinations of DNA G-quadruplex stabilizer agents and targeted small molecules. Complex spheroids include a stromal component modeled by human endothelial cells (HUVEC) and fibroblasts modeled by human mesenchymal stem cells (MSCs). The concentration ranges selected for each drug and investigational agent were based upon clinically achievable concentrations if the clinical Cmax of the agent was known.
Compounds. The drugs and investigational agents: pidnarulex (CX-5461; NSC782164), APTO-253 (NSC789042), BRACO-19 (NSC847499), peposertib (NSC802822), ceralasertib (NSC780249), elimusertib (NSC800525), camonsertib (NSC841442), AZD-1390 (NSC803789), olaparib (NSC753686), talazoparib (NSC767125), ART-558 (NSC835418), sotorasib (NSC818433), MRTX-1133 (NSC836407), SN-38 (NSC673596), topotecan (NSC609699), etoposide (NSC141540), doxorubicin (NSC123127), gemcitabine (NSC613327), 5-fluorouracil (NSC19893), paclitaxel (NSC125973), vemurafenib (NSC761431), panobinostat (NSC761190), R-306465 (JNJ-16241199; NSC773264), adavosertib (NSC754352), TP-3654 (NSC805149), carboplatin (NSC241240), KSQ-4279 (NSC840948), and staurosporine (NSC755774) were obtained from the National Cancer Institute (NCI) Developmental Therapeutics Program Chemical Repository (34). The FDA-approved anticancer drug set is available from the NCI Developmental Therapeutics Program. […] The stock solutions were prepared in dimethyl sulfoxide (DMSO, Sigma-Aldrich, St. Louis, MO, cat. D2650) at 800-fold the tested concentration and stored at -70 degrees C prior to their use. All drugs and investigational agents were tested over a range starting from a high concentration at or near the clinical Cmax and decreasing in half-log increments. If the clinical Cmax for an agent had not been determined, the highest concentration tested was 10 microM.
2.3 Cell Culture. All cells were maintained in an incubator at 37 degrees C and 5% CO2 with 95% humidity. The PDC lines were cultured according to standard operating procedures established by the NCI PDMR. All PDCs were thawed and cultured in Matrigel-coated flasks prepared with a working solution of 1X Ham's F-12 nutrient mix, without supplementation (Invitrogen, cat. 11765054), 100 U/mL penicillin-streptomycin (Invitrogen, cat. 15140122), and 2.5% Matrigel (Corning Inc., cat. 354248) for the first three passages. The 857933-349-R-J2-PDC line was cultured in 6C/Colon 1B media, which includes advanced DMEM/F-12 (Thermo Fisher Scientific, cat. 12634028), 10 mM HEPES (Thermo Fisher Scientific, cat. 15630080), 1X GlutaMAX supplement (Thermo Fisher Scientific, cat. 35050061), 0.1 mg/mL primocin (InvivoGen, cat. ant-pm-2), 10% defined fetal bovine serum, heat inactivated (HyClone Laboratories Inc., cat. SH30070.03HI), 50% L-WRN conditioned media (ATCC, cat. CRL-3276), 1.25 mM N-Acetyl-L-cysteine (Sigma-Aldrich, cat. A9165), 10 mM nicotinamide (Sigma-Aldrich, cat. N0636), 1X B-27 supplement (Thermo Fisher Scientific, cat. 17504044), 1X N-2 supplement (Thermo Fisher Scientific, cat. 17502048), 10 microM Y-27632 dihydrochloride (Tocris Bioscience, cat. 1254), and 50 ng/mL human EGF recombinant protein (Thermo Fisher Scientific, cat. PHG0311). The 485176-168-R4-J1-PDC line was cultured in Panc media, which includes all 6C/Colon 1B media components plus 100 ng/mL human FGF-10 (Thermo Fisher Scientific, cat. 100-26), 500 nM SB-431542 (Selleckchem, cat. S1067), and gastrin (Tocris, cat. 3006).
[…]

| SMILES | viability, T/C (compound 0.0316 µM) | viability, T/C (compound 0.1 µM) | viability, T/C (compound 0.316 µM) | viability, T/C (compound 1 µM) | viability, T/C (compound 3.16 µM) | viability, T/C (compound 10 µM) | IC50 (compound alone, run of 03/18/2024) | viability, T/C (compound 0.000999 µM) | viability, T/C (compound 0.00316 µM) | viability, T/C (compound 0.00999 µM) | viability, T/C (compound 0.0999 µM) | IC50 (curve of compound) |
| --- | --- | --- | --- | --- | --- | --- | --- | --- | --- | --- | --- | --- |
| Cc1cnc(CNC(=O)c2c(=O)c3ccc(N4CCCN(C)CC4)nc3n3c2sc2ccccc23)cn1 | 71.2% [middle of 12 runs] | 40.9% [middle of 12 runs] | 27% [middle of 12 runs] | 16.7% [middle of 12 runs] | 11.6% [middle of 12 runs] | 11.3% [middle of 12 runs] | 68.4 nM [middle of 11 runs] | – | – | – | – | – |
| Cn1ncnc1[C@H]1c2n[nH]c(=O)c3cc(F)cc(c23)N[C@@H]1c1ccc(F)cc1 | 70% and 67.1% and 66.2% | – | 36.7% and 29.4% and 34.7% | – | – | – | – | 97.2% and 105% and 82.2% | 92.2% and 77% and 90.2% | 76.3% and 86.3% and 86.2% | 53.7% and 55% and 46.8% | 0.128 µM and 0.11 µM and 0.0778 µM |
| Nc1ccn(C2OC(CO)C(O)C2(F)F)c(=O)n1 (configuration not stated) | 12.1% and 11.8% and 8.43% | 5.96% and 5.24% and 5.38% | 5.74% and 5.8% and 4.72% | 6.33% and 6.36% and 4.79% | 6.11% and 5.6% and 4.26% | 5.62% and 5.26% and 4.2% | – | – | – | – | – | < 0.0316 µM |
| O=C(NO)c1cnc(N2CCN(S(=O)(=O)c3ccc4ccccc4c3)CC2)nc1 | 65% and 73.3% and 81.7% | 24% and 32.4% and 40.8% | 4.46% and 3.52% and 3.88% | 0.24% and 0.3% and 0.34% | 0.04% (2×) and 0.15% | 0.06% and 0.13% and 0.05% | – | – | – | – | – | 0.0481 µM and 0.061 µM and 0.0772 µM |
| O=C(c1cc(Cc2n[nH]c(=O)c3ccccc23)ccc1F)N1CCN(C(=O)C2CC2)CC1 | 87.6% and 92% and 100% | 91.8% and 91.9% and 84.2% | 93.4% and 85.7% and 102% | 77.6% and 81.8% and 83.7% | 63.9% and 52.6% and 40% | 26.5% and 25.6% and 20.9% | – | – | – | – | – | 4.76 µM and 3.58 µM and 2.43 µM |
| O=c1[nH]cc(F)c(=O)[nH]1 | 109% and 96.5% and 111% | 86.7% and 99.3% and 94.8% | 99.8% and 104% and 106% | 95.4% and 96.4% and 96.5% | 69.2% and 93.7% and 84.7% | 30.4% and 23.8% and 19.9% | – | – | – | – | – | 5.6 µM and 6.49 µM and 5.82 µM |
